Active and inactive are the calls of the source. The calls are words filed in the database; no cut-off is given here.
Experiments:
[1] = Octanol-water partition coefficient, logP of the compound at 2 uM after 20 hrs by HPLC analysis; assay type: physicochemical
[2] = Drug uptake in Staphylococcus aureus ATCC 29213 at 10 uM incubated at 37 degree for 15 mins by UV-vis absorption spectra analysis relative to control; assay type: ADME; settings: 0.25 h
[3] = Drug uptake in Escherichia coli ATCC 25922 at 10 uM incubated at 37 degree for 15 mins by UV-vis absorption spectra analysis relative to control; assay type: ADME; settings: 0.25 h
[4] = system: Candida albicans; test: Drug uptake in Candida albicans ATCC 14053 at 10 uM incubated at 37 degree for 15 mins by UV-vis absorption spectra analysis relative to control; assay type: ADME, organism-based; settings: 0.25 h
[5] = system: Escherichia coli; test: Photodynamic antimicrobial activity against Escherichia coli ATCC 25922 preincubated for 15 mins followed by irradiation with 90 mW/cm^2 light for 15 mins and measured after 24 hrs; assay type: functional; settings: ATCC 25922, light or radiation study, time 24.5 hrs
[6] = system: Staphylococcus aureus; test: Photodynamic antimicrobial activity against Staphylococcus aureus ATCC 29213 preincubated for 15 mins followed by irradiation with 90 mW/cm^2 light for 15 mins and measured after 24 hrs; assay type: functional; settings: ATCC 29213, light or radiation study, time 24.5 hrs
[7] = system: Candida albicans; test: Photodynamic antimicrobial activity against Candida albicans ATCC 14053 preincubated for 15 mins followed by irradiation with 90 mW/cm^2 light for 15 mins and measured after 24 hrs; assay type: functional; settings: ATCC 14053, light or radiation study, time 24.5 hrs
[8] = system: Staphylococcus aureus; test: Photodynamic antimicrobial activity against methicillin resistant Staphylococcus aureus ATCC43300 preincubated for 15 mins followed by irradiation with 90 mW/cm^2 light for 15 mins and measured after 24 hrs; assay type: functional; settings: ATCC43300, light or radiation study, time 24.5 hrs
[9] = system: Staphylococcus aureus; test: Photodynamic antimicrobial activity against Staphylococcus aureus […] assessed as loss of microbial viability at 2 uM preincubated for 15 mins followed by light irradiation at 81 J/cm^2 dose for 15 mins and measured after 36 hrs; assay type: functional; settings: time 36.5 hrs
[10] = system: Candida albicans; test: Photodynamic antimicrobial activity against Candida albicans ATCC14053 assessed as loss of microbial viability at 2 uM preincubated for 15 mins followed by light irradiation at 81 J/cm^2 dose for 15 mins and measured after 36 hrs; assay type: functional; settings: time 36.5 hrs
[11] = system: Escherichia coli; test: Photodynamic antimicrobial activity against Escherichia coli ATCC25922 assessed as loss of microbial viability at 2 uM preincubated for 15 mins followed by light irradiation at 81 J/cm^2 dose for 15 mins and measured after 36 hrs; assay type: functional, ATCC 25922; settings: time 36.5 hrs
[12] = system: Staphylococcus aureus; test: Photodynamic antimicrobial activity against Staphylococcus aureus […] assessed as decrease in viable cell log count at 0.31 uM preincubated for 15 mins followed by light irradiation at 81 J/cm^2 dose for 15 mins and measured after 36 hrs; assay type: functional; settings: time 36.5 hrs
[13] = system: Staphylococcus aureus; test: Photodynamic antimicrobial activity against Staphylococcus aureus […] assessed as decrease in viable cell log count at 5 uM preincubated for 15 mins followed by light irradiation at 81 J/cm^2 dose for 15 mins and measured after 36 hrs; assay type: functional; settings: time 36.5 hrs
[14] = system: Candida albicans; test: Photodynamic antimicrobial activity against Candida albicans ATCC14053 assessed as reduction in viable cells log count at 0.5 uM preincubated in dark for 15 mins followed by light irradiation at 81 J/cm^2 dose for 15 mins and measured after 36 hrs; assay type: functional; settings: time 36.5 hrs
[15] = system: Candida albicans; test: Photodynamic antimicrobial activity against Candida albicans ATCC14053 assessed as reduction in viable cells log count at 1 uM preincubated in dark for 15 mins followed by light irradiation at 81 J/cm^2 dose for 15 mins and measured after 36 hrs; assay type: functional; settings: time 36.5 hrs
[16] = system: Staphylococcus aureus; test: Photodynamic antimicrobial activity against methicillin resistant Staphylococcus aureus ATCC43300 assessed as log count reduction in viable cells at 0.625 uM preincubated in dark for 15 mins followed by light irradiation at 81 J/cm^2 dose for 15 mins and measured after 36 hrs; assay type: functional; settings: time 36.5 hrs
[17] = system: Staphylococcus aureus; test: Photodynamic antimicrobial activity against methicillin resistant Staphylococcus aureus ATCC43300 assessed as log count reduction in viable cells at 1.25 uM incubated in dark for 15 mins followed by light irradiation at 81 J/cm^2 dose for 15 mins and measured after 36 hrs; assay type: functional; settings: time 36.5 hrs
[18] = system: Escherichia coli; test: Photodynamic antimicrobial activity against Escherichia coli ATCC25922 assessed as bacterial clearance ratio at 1.25 uM preincubated for 15 mins in dark followed by irradiation with 27 J/cm^2 light for 5 mins and measured after 36 hrs; assay type: functional, ATCC 25922; settings: time 2180 min, 36.33 h
[19] = system: Escherichia coli; test: Photodynamic antimicrobial activity against Escherichia coli ATCC25922 assessed as bacterial clearance ratio at 1.25 uM preincubated for 15 mins in dark followed by irradiation with 54 J/cm^2 light for 10 mins and measured after 36 hrs; assay type: functional, ATCC 25922; settings: time 2185 min, 36.42 h
[20] = system: Escherichia coli; test: Photodynamic antimicrobial activity against Escherichia coli ATCC25922 assessed as bacterial clearance ratio at 1.25 uM preincubated for 15 mins in dark followed by irradiation with 81 J/cm^2 light for 15 mins and measured after 36 hrs; assay type: functional, ATCC 25922; settings: time 2190 min, 36.5 h
[21] = system: Escherichia coli; test: Photodynamic antimicrobial activity against Escherichia coli ATCC25922 assessed as bacterial clearance ratio at 1.25 uM preincubated for 15 mins in dark followed by irradiation with 81 J/cm^2 light for 20 to 25 mins and measured after 36 hrs; assay type: functional, ATCC 25922; settings: time 2195-2200 min
[22] = system: HaCaT; test: Dark toxicity against human HaCat cells assessed as reduction in cell survival upto 20 uM incubated under dark condition for 15 mins by CCK-8 assay; assay type: cell-based; settings: 0.25 h
[23] = system: HaCaT; test: Cytotoxicity against human HaCat Cells assessed as reduction in cell survival preincubated for 15 mins followed by irradiated with light at 81 J/cm^2 for 15 mins and measured after 24 hrs by CCK-8 assay; assay type: cell-based; settings: light or radiation study
[24] = system: Candida albicans; test: Induction of ROS generation in Candida albicans ATCC14053 at 0.16 to 20 uM preincubated for 15 mins followed by irradiation with 81 J/cm^2 light for 15 mins by DCFH-DA staining-based fluorescence microscopy analysis; assay type: functional, organism-based; settings: dose 0.16-20 µM, time 30.0 min
[25] = system: Cell membrane; test: Induction of cell membrane disruption in Staphylococcus aureus ATCC29213 at 2.5 uM preincubated for 15 mins followed by irradiated with 81 J/cm^2 light for 15 mins by DAPI staining based confocal laser scanning microscopic analysis; settings: time 30.0 min
[26] = system: Cell membrane; test: Induction of cell membrane disruption in Candida albicans ATCC14053 at 2.5 uM preincubated for 15 mins followed by irradiated with 81 J/cm^2 light for 15 mins by DAPI staining based confocal laser scanning microscopic analysis; settings: time 30.0 min
[27] = system: Cell membrane; test: Induction of cell membrane disruption in Escherichia coli ATCC25922 at 5 uM preincubated for 15 mins followed by irradiated with 81 J/cm^2 light for 15 mins by DAPI staining based confocal laser scanning microscopic analysis; settings: Escherichia coli ATCC 25922, time 30.0 min
[28] = system: Staphylococcus aureus; test: (§1) In vivo antibacterial activity against Staphylococcus aureus ATCC29213 infected in Swiss albino mouse assessed as wound healing at 10 mg treated on day 2 post infection and followed by irradiation with 81 J/cm^2 light for 15 mins and measured every 3 days upto 8 days; assay type: functional, organism-based; settings: time 8.0 day
[29] = system: Staphylococcus aureus; test: as §1, with “assessed as reduction in neutophils count at 10” for “assessed as wound healing at 10”, “8 days by H and E staining analysis” for “8 days”; assay type: functional, organism-based; settings: time 8.0 day
[30] = system: Staphylococcus aureus; test: Induction of morphological changes in Staphylococcus aureus ATCC 29213 at 10 uM preincubated for 15 mins followed by light irradiation at 90 mW/cm2 for 15 mins by SEM analysis; assay type: functional, organism-based; settings: time 30.0 min
[31] = system: Escherichia coli; test: Induction of morphological changes in Escherichia coli ATCC 25922 at 10 uM preincubated for 15 mins followed by light irradiation at 90 mW/cm2 for 15 mins by SEM analysis; assay type: functional, organism-based; settings: time 30.0 min
[32] = system: Candida albicans; test: Induction of morphological changes in Candida albicans ATCC 14053 at 10 uM preincubated for 15 mins followed by light irradiation at 90 mW/cm2 for 15 mins by SEM analysis; assay type: functional, organism-based; settings: time 30.0 min
[33] = system: Escherichia coli; test: Photodynamic antimicrobial activity against Escherichia coli ATCC25922 assessed as decrease in viable cell log count at 1.25 uM preincubated for 15 mins followed by light irradiation at 81 J/cm^2 dose for 15 mins and measured after 36 hrs; assay type: functional, ATCC 25922; settings: time 36.5 hrs
[34] = system: Escherichia coli; test: Photodynamic antimicrobial activity against Escherichia coli ATCC25922 assessed as decrease in viable cell log count at 2.5 uM preincubated for 15 mins followed by light irradiation at 81 J/cm^2 dose for 15 mins and measured after 36 hrs; assay type: functional, ATCC 25922; settings: time 36.5 hrs
[35] = system: Escherichia coli; test: Photodynamic antimicrobial activity against Escherichia coli ATCC25922 assessed as decrease in viable cell log count at 5 uM preincubated for 15 mins followed by light irradiation at 81 J/cm^2 dose for 15 mins and measured after 36 hrs; assay type: functional, ATCC 25922; settings: time 36.5 hrs
[36] = system: Staphylococcus aureus; test: Photodynamic antimicrobial activity against methicillin resistant Staphylococcus aureus ATCC43300 assessed as loss of microbial viability at 2 uM preincubated for 15 mins followed by light irradiation at 81 J/cm^2 dose for 15 mins and measured after 36 hrs; assay type: functional; settings: time 36.5 hrs

For `CC1=C(I)C(C)=[N+]2C1=C(c1ccccn1)c1c(C)c(I)c(C)n1[B-]2(F)F`, the logP at 20 h, 2 µM [1] was > 4.

For `CC1=C(I)C(C)=[N+]2C1=C(c1ccncc1)c1c(C)c(I)c(C)n1[B-]2(F)F`, the logP at 20 h, 2 µM [1] was > 4.

`CC1=C(I)C(C)=[N+]2C1=C(c1ccc[n+](Cc3ccccc3)c1)c1c(C)c(I)c(C)n1[B-]2(F)F.[Br-]` showed a Drug uptake [2] of 80%, a Drug uptake [3] of 68% and a Drug uptake [4] of 25%. The MIC [5] was 0.63 µM, the MIC [6] was 2.5 µM and the MIC [7] was 1.25 µM. The MIC [8] was 0.63 µM, the Activity [9] was >99.9999% and the Activity [10] was “Active”. For the same compound, the logP at 20 h, 2 µM [1] was > 4.

In the case of `CC1=C(I)C(C)=[N+]2C1=C(c1cccnc1)c1c(C)c(I)c(C)n1[B-]2(F)F`, the logP at 20 h, 2 µM [1] is reported as > 4.

`CCCCCCC[n+]1cccc(C2=C3C(C)=C(I)C(C)=[N+]3[B-](F)(F)n3c(C)c(I)c(C)c32)c1.[I-]` gave a Drug uptake [2] of 72%, a Drug uptake [3] of 61% and a Drug uptake [4] of 27%. For the same compound, the MIC [5] was 0.63 µM, the MIC [6] was 2.5 µM and the MIC [7] was 1.25 µM. The MIC [8] was 0.63 µM, the Activity [9] was >99.9999% and the Activity [10] was “Active”. For the same compound, the logP at 20 h, 2 µM [1] was > 4.

In the case of `CC1=C(I)C(C)=[N+]2C1=C(c1ccc[n+](C)c1)c1c(C)c(I)c(C)n1[B-]2(F)F.[I-]`, the Drug uptake [2] is reported as 56%, the Drug uptake [3] is reported as 47% and the Drug uptake [4] is reported as 9%. The MIC [5] was 0.63 µM, the MIC [6] was 1.25 µM and the MIC [7] was 0.63 µM. For the same compound, the MIC [8] was 0.63 µM, the Activity [9] was >99.9999% and the Activity [10] was >99.9%. The Activity [11] was 99.9999%, the “log(activity)” value [12] was 3.59 and the “log(activity)” value [13] was 7.05. The Activity [14] was 98%, the Activity [15] was 99.99% and the “log(activity)” value [16] was 3.8. The “log(activity)” value [17] was >6.7, the Activity [18] was 99.23% and the Activity [19] was 99.97%. For the same compound, the Activity [20] was >99.9998%, the Activity [21] was >99.9998% and the Activity [22] was “Non-Toxic”. For the same compound, the IC50 [23] was 3.86 µM, the Activity [24] was “Active” and the Activity [25] was “Active”. For the same compound, the Activity [26] was “Active”, the Activity [27] was “Active” and the Activity [28] was “Active”. The Activity [29] was “Active”, the Activity [30] was “inactive” and the Activity [31] was “inactive”. For the same compound, the Activity [32] was “inactive” and the logP at 20 h, 2 µM [1] was 1.44.

Work on `CC1=C(I)C(C)=[N+]2C1=C(c1cccc[n+]1C)c1c(C)c(I)c(C)n1[B-]2(F)F.[I-]` yielded a Drug uptake [2] of 4%, a Drug uptake [3] of 10% and a Drug uptake [4] of 4%. For the same compound, the MIC [5] was 1.25 µM, the MIC [6] was 10 µM and the MIC [7] was 2.5 µM. The MIC [8] was 1.25 µM, the Activity [9] was 99.9% and the Activity [10] was 77%. For the same compound, the Activity [11] was 99.3%, the “log(activity)” value [33] was 2.53 and the “log(activity)” value [34] was 5.26. The “log(activity)” value [35] was 6.62 and the logP at 20 h, 2 µM [1] was 0.17.

In the case of `CC1=C(I)C(C)=[N+]2C1=C(c1cc[n+](C)cc1)c1c(C)c(I)c(C)n1[B-]2(F)F.[I-]`, the Drug uptake [2] is reported as 65%, the Drug uptake [3] is reported as 53% and the Drug uptake [4] is reported as 23%. It also gave an MIC [5] of 1.25 µM, an MIC [6] of 2.5 µM and an MIC [7] of 2.5 µM. For the same compound, the MIC [8] was 1.25 µM, the Activity [9] was “Active” and the Activity [36] was “Active”. It also gave an Activity [10] of 77%, an Activity [11] of 99.4% and a logP at 20 h, 2 µM [1] of 2.14.

— ChEMBL document CHEMBL5034041, “Discovery of Meso-(meta-Pyridinium) BODIPY Photosensitizers: In Vitro and In Vivo Evaluations for Antimicrobial Photodynamic Therapy” (J Med Chem, 2021)
